# Patent US11358977B2, “Deuterated pyridone amides and prodrugs thereof as modulators of sodium channels” (VERTEX PHARMACEUTICALS INCORPORATED, priority 2017, dated 2022)
# Legend:
# [1] = In vitro microsomal metabolic stability assay, dog; format: in vitro ADME; details: dog liver microsomes 0.25 mg/mL, 1.0 μM compound, NADPH
# Procedure: (§1) Materials. Rat, Dog, Monkey and Human liver microsomes (20 mg/mL) were obtained from Xenotech, LLC (Lenexa, Kans.). P-nicotinamide adenine dinucleotide phosphate, reduced form (NADPH), magnesium chloride (MgCl2), and dimethyl sulfoxide (DMSO) were purchased from Sigma-Aldrich.
# (§2) Methods. […] The 10 mM stock solutions were diluted to 100 μM in DMSO. In each cluster polypropylene tube, 190.7 μL of 100 mM phosphate buffer, pH 7.4 was added, then 2.5 μL of liver mocrosomes (20 mg/mL, rat, dog, monkey or human) was added, then a 2 μL aliquot of the 100 μM test compound was added, and the mixture was pre-warmed for 10 minutes. Reactions were initiated by addition of 4.8 μL of pre-warmed NADPH solution (100 mM in 100 mM phosphate buffer). The final reaction volume was 200 μL and contained 0.25 mg/mL rat, dog, monkey or human liver microsomes, 1.0 μM test compound, and 2.4 mM NADPH in 0.1 M potassium phosphate buffer, pH 7.4. The reaction mixtures were incubated at 37° C., and the reactions were quenched at 0, 15, 30 and 60 minutes by adding 200 μL of ice-cold quench solution (ACN:MeOH:0.1% formic acid in water 2:2:1) containing internal standard, n=3 per time point. The tubes were centrifuged and supernatants were analyzed for amounts of the test compound remaining by LC-MS/MS. The HPLC system included a Phenomenex Luna C8 column, 3 micron, 2 mm diameter×30 mm long eluted with a gradient mobile phase consisting of 0.1% formic acid in water or in acetonitrile. The analytes were detected by MS/MS with Electrospray Ionization (ESI) in the mode of multiple reaction monitoring (MRM). The injection volume was 10 μL.
# [2] = In vitro microsomal metabolic stability assay, human; format: in vitro ADME; details: human liver microsomes 0.25 mg/mL, 1.0 μM compound, NADPH
# Procedure: as §1, §2
# [3] = In vitro microsomal metabolic stability assay, rat; format: in vitro ADME; details: rat liver microsomes 0.25 mg/mL, 1.0 μM compound, NADPH
# Procedure: as §1, §2
# [4] = In vitro microsomal metabolic stability assay, monkey; format: in vitro ADME; details: monkey liver microsomes 0.25 mg/mL, 1.0 μM compound, NADPH
# Procedure: as §1, §2
# human NaV 1.8 = molecular target: T1, human NaV 1.8 (Homo sapiens, UniProt Q9Y5Y9); assay: E-VIPR assay for NaV inhibition; format: cell-based; details: HEK cells expressing human NaV 1.8, E-VIPR, normalised to positive control 25 μM
# T1 construct: expressed in transfected cells; host or cells: HEK cells, grown under blasticidin selection; KIR2.1 BacMam virus added before seeding
# Text: Sodium ion channels are voltage-dependent proteins that can be activated by inducing membrane voltage changes by applying electric fields. […] The instrument comprises a microtiter plate handler, an optical system for exciting the coumarin dye while simultaneously recording the coumarin and oxonol emissions, a waveform generator, a current- or voltage-controlled amplifier, and parallel electrode pairs that are inserted into assay plate wells. Under integrated computer control, this instrument passes user-programmed electrical stimulus protocols to cells within the wells of the microtiter plate.
# The solution was made by adding 10% Pluronic F127 stock equal to combined volumes of CC2-DMPE and DiSBAC6(3).
# Then 25 μL per well from compound plate was transferred to each cell plate.
# A pre-stimulus recording was performed for 0.5 seconds to obtain the un-stimulated intensities baseline. The stimulatory waveform was followed by 0.5 seconds of post-stimulation recording to examine the relaxation to the resting state.
# T1 sequence (Q9Y5Y9 whole entry): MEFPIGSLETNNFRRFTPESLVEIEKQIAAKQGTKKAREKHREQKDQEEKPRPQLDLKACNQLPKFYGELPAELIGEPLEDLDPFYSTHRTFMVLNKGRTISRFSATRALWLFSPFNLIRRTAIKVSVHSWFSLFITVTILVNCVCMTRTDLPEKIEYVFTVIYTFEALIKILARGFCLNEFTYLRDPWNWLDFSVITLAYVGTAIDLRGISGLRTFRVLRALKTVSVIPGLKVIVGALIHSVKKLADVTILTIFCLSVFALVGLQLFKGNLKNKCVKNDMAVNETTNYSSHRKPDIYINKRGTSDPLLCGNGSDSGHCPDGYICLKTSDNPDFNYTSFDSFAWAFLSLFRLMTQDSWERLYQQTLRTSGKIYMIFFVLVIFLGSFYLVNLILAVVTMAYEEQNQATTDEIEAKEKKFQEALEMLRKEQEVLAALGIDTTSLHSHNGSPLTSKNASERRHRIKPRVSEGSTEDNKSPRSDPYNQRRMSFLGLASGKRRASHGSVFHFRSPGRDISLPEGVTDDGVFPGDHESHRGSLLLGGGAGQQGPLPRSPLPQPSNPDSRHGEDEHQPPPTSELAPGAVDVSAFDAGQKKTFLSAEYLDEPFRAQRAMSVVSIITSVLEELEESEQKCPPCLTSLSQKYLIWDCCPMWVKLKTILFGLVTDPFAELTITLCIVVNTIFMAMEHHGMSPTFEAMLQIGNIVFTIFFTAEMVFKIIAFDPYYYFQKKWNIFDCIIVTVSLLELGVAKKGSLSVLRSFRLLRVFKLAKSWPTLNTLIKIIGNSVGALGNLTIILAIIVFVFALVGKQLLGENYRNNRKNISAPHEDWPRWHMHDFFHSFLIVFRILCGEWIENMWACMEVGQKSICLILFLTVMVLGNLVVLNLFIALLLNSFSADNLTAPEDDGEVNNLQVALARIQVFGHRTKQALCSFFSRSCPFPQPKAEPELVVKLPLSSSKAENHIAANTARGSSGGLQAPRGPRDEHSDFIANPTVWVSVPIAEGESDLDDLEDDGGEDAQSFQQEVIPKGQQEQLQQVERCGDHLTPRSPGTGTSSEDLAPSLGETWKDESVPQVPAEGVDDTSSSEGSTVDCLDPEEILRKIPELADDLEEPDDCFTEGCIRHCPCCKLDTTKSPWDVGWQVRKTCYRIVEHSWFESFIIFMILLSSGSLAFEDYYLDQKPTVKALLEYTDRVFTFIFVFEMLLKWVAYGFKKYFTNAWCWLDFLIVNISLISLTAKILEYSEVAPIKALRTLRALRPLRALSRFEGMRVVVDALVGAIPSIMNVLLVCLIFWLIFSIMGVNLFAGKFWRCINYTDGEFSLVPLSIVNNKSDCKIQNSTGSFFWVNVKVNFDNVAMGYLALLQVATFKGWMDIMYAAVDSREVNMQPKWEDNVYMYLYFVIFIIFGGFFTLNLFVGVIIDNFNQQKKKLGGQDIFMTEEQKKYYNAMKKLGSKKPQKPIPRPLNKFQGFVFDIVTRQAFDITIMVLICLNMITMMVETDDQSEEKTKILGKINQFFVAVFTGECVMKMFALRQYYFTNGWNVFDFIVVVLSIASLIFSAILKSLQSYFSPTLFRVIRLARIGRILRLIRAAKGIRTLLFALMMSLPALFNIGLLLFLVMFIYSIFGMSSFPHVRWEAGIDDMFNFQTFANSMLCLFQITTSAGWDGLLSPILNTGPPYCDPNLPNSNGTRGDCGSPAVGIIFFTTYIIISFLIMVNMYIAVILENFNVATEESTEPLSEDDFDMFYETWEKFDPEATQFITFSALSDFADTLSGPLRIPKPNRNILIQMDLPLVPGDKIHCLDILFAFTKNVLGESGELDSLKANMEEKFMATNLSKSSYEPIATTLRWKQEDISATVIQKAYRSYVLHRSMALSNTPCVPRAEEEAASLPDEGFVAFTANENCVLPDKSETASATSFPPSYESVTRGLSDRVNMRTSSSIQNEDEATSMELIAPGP
compound,measurement,setting,value
"[2H]C([2H])([2H])c1cc(F)ccc1Oc1cc(C(F)(F)F)ccc1C(=O)Nc1cc[nH]c(=O)c1 [Compound 7, 2-(4-fluoro-2-(methyl-d3)phenoxy)-N-(2-oxo-1,2-dihydropyridin-4-yl)-4-(trifluoromethyl)benzamide]",% remaining,[1]; 0 min,100%
same,% remaining,[1]; 15 min,86.1%
same,% remaining,[1]; 30 min,85.8%
same,% remaining,[1]; 60 min,87.5%
same,% remaining,[2]; 0 min,100%
same,% remaining,[2]; 15 min,109%
same,% remaining,[2]; 30 min,105%
same,% remaining,[2]; 60 min,106%
same,% remaining,[3]; 0 min,100%
same,% remaining,[3]; 15 min,109%
same,% remaining,[3]; 30 min,105%
same,% remaining,[3]; 60 min,92.2%
same,% remaining,[4]; 0 min,100%
same,% remaining,[4]; 15 min,97.0%
same,% remaining,[4]; 30 min,93.3%
same,% remaining,[4]; 60 min,92.5%
same,Nav1.8 Max % Activity,human NaV 1.8,98%
